In patent US10945435B2, “Imidazopyrimidine derivatives with sulfur containing phenyl and pyridyl substituents” (SYNGENTA PARTICIPATIONS AG, priority 2017, dated 2021):

Key:
Format in all cases: in vivo
[1] = tested on: Bemisia tabaci (Cotton White Fly); assay: Example B1 Bemisia tabaci feeding/contact activity; details: foliar, 144 h, application rate of 200 ppm, adult white flies on sprayed cotton leaf discs, 6 days after incubation
Experimental: Bemisia tabaci (Cotton White Fly): Feeding/Contact Activity
Cotton leaf discs were placed on agar in 24-well microtiter plates and sprayed with aqueous test solutions prepared from 10,000 ppm DMSO stock solutions. After drying the leaf discs were infested with adult white flies. The samples were checked for mortality 6 days after incubation.

[2] = tested on: Diabrotica balteata (Corn Root Worm); assay: Example B2 Diabrotica balteata mortality and growth inhibition; details: 96 h, application rate of 200 ppm, L2 larvae on sprayed maize sprouts, 4 days after infestation, read-out: effect in at least one of the two categories (mortality or growth inhibition)
Experimental: Diabrotica balteata (Corn Root Worm)
Maize sprouts placed onto an agar layer in 24-well microtiter plates were treated with aqueous test solutions prepared from 10,000 ppm DMSO stock solutions by spraying. After drying, the plates were infested with L2 larvae (6 to 10 per well). The samples were assessed for mortality and growth inhibition in comparison to untreated samples 4 days after infestation.

[3] = tested on: Diabrotica balteata (Corn Root Worm); assay: Example B4 Diabrotica balteata mortality; details: 96 h, application rate of 200 ppm, L2 larvae on sprayed maize sprouts, 4 days after infestation
Experimental: Diabrotica Balteata (Corn Root Worm):
Maize sprouts placed onto an agar layer in 24-well microtiter plates were treated with aqueous test solutions prepared from 10,000 ppm DMSO stock solutions by spraying. After drying, the plates were infested with L2 larvae (6 to 10 per well). The samples were assessed for mortality 4 days after infestation.

[4] = tested on: Euschistus heros (Neotropical Brown Stink Bug); assay: Example B5 Euschistus heros mortality and growth inhibition; details: 120 h, application rate of 200 ppm, N2 nymphs on sprayed soybean leaves, 5 days after infestation, read-out: effect in at least one of the two categories (mortality or growth inhibition)
Experimental: Euschistus heros (Neotropical Brown Stink Bug)
Soybean leaves on agar in 24-well microtiter plates were sprayed with aqueous test solutions prepared from 10,000 ppm DMSO stock solutions. After drying the leaves were infested with N2 nymphs. The samples were assessed for mortality and growth inhibition in comparison to untreated samples 5 days after infestation.

[5] = tested on: Euschistus heros (Neotropical Brown Stink Bug); assay: Example B7 Euschistus heros feeding/contact activity; details: 120 h, application rate of 200 ppm, N2 nymphs on sprayed soybean leaves, 5 days after infestation
Experimental: Euschistus heros (Neotropical Brown Stink Bug): Feeding/Contact Activity
Soybean leaves on agar in 24-well microtiter plates were sprayed with aqueous test solutions prepared from 10,000 ppm DMSO stock solutions. After drying the leaves were infested with N2 nymphs. The samples were assessed for mortality 5 days after infestation.

[6] = tested on: Myzus persicae (Green Peach Aphid); assay: Example B9 Myzus persicae feeding/contact activity; details: foliar, 144 h, application rate of 200 ppm, mixed-age aphids on sprayed sunflower leaf discs, 6 days after infestation
Experimental: Myzus persicae (Green Peach Aphid): Feeding/Contact Activity
Sunflower leaf discs were placed onto agar in a 24-well microtiter plate and sprayed with aqueous test solutions prepared from 10,000 ppm DMSO stock solutions. After drying, the leaf discs were infested with an aphid population of mixed ages. The samples were assessed for mortality 6 days after infestation.

[7] = tested on: Plutella xylostella (Diamond Back Moth); assay: Example B11 Plutella xylostella growth inhibition activity; details: 120 h, application rate of 200 ppm, L2 larvae on treated artificial diet, 5 days after infestation
Experimental: Plutella xylostella (Diamond Back Moth): Growth Inhibition Activity
24-well microtiter plates with artificial diet were treated with aqueous test solutions prepared from 10,000 ppm DMSO stock solutions by pipetting. After drying, the plates were infested with L2 larvae (10 to 15 per well). The samples were assessed for growth inhibition in comparison to untreated samples 5 days after infestation. Control of Plutella xylostella by a test sample is given when the growth inhibition is higher than the untreated sample.

[8] = tested on: Plutella xylostella (Diamond Back Moth); assay: Example B12 Plutella xylostella feeding/contact activity; details: 120 h, application rate of 200 ppm, L2 larvae on treated artificial diet, 5 days after infestation
Experimental: Plutella xylostella (Diamond Back Moth): Feeding/Contact Activity
24-well microtiter plates with artificial diet were treated with aqueous test solutions prepared from 10,000 ppm DMSO stock solutions by pipetting. After drying, the plates were infested with L2 larvae (10 to 15 per well). The samples were assessed for mortality 5 days after infestation.

[9] = tested on: Plutella xylostella (Diamond Back Moth); assay: Example B13 Plutella xylostella mortality and growth inhibition; details: 120 h, application rate of 200 ppm, L2 larvae on treated artificial diet, 5 days after infestation, read-out: effect in at least one of the two categories (mortality or growth inhibition)
Experimental: Plutella xylostella (Diamond Back Moth)
24-well microtiter plates with artificial diet were treated with aqueous test solutions prepared from 10,000 ppm DMSO stock solutions by pipetting. After drying, the plates were infested with L2 larvae (10 to 15 per well). The samples were assessed for mortality and growth inhibition in comparison to untreated samples 5 days after infestation.

[10] = tested on: Spodoptera littoralis (Egyptian Cotton Leaf Worm); assay: Example B14 Spodoptera littoralis anti-feeding activity; details: foliar, 72 h, application rate of 200 ppm, L1 larvae on sprayed cotton leaf discs, 3 days after infestation, read-out: control (anti-feeding effect)
Experimental: Spodoptera littoralis (Egyptian Cotton Leaf Worm): Anti-Feeding Activity
Cotton leaf discs were placed onto agar in 24-well microtiter plates and sprayed with aqueous test solutions prepared from 10,000 ppm DMSO stock solutions. After drying the leaf discs were infested with five L1 larvae. The samples were assessed for anti-feeding effect in comparison to untreated samples 3 days after infestation. Control of Spodoptera littoralis by a test sample is given when the anti-feedant effect is higher than the untreated sample.

[11] = tested on: Spodoptera littoralis (Egyptian Cotton Leaf Worm); assay: Example B15 Spodoptera littoralis growth inhibition activity; details: foliar, 72 h, application rate of 200 ppm, L1 larvae on sprayed cotton leaf discs, 3 days after infestation, read-out: control (growth inhibition)
Experimental: Spodoptera littoralis (Egyptian Cotton Leaf Worm): Growth Inhibition Activity
Cotton leaf discs were placed onto agar in 24-well microtiter plates and sprayed with aqueous test solutions prepared from 10,000 ppm DMSO stock solutions. After drying the leaf discs were infested with five L1 larvae. The samples were assessed for growth inhibition in comparison to untreated samples 3 days after infestation. Control of Spodoptera littoralis by a test sample is given when the growth inhibition is higher than the untreated sample.

[12] = tested on: Spodoptera littoralis (Egyptian Cotton Leaf Worm); assay: Example B16 Spodoptera littoralis feeding/contact activity; details: foliar, 72 h, application rate of 200 ppm, L1 larvae on sprayed cotton leaf discs, 3 days after infestation
Experimental: Spodoptera littoralis (Egyptian Cotton Leaf Worm): Feeding/Contact Activity
Cotton leaf discs were placed onto agar in 24-well microtiter plates and sprayed with aqueous test solutions prepared from 10,000 ppm DMSO stock solutions. After drying the leaf discs were infested with five L1 larvae. The samples were assessed for mortality 3 days after infestation.

[13] = tested on: Myzus persicae (Green Peach Aphid); assay: Example B10 Myzus persicae systemic activity; details: 144 h, test rate of 24 ppm, roots of infested pea seedlings in test solution, 6 days
Experimental: Myzus persicae (Green Peach Aphid). Systemic Activity
Roots of pea seedlings infested with an aphid population of mixed ages were placed directly into aqueous test solutions prepared from 10,000 DMSO stock solutions. The samples were assessed for mortality 6 days after placing seedlings into test solutions.

[14] = tested on: Frankliniella occidentalis (Western Flower Thrips); assay: Example B8 Frankliniella occidentalis feeding/contact activity; details: foliar, 168 h, application rate of 200 ppm, mixed-age population on sprayed sunflower leaf discs, 7 days after infestation
Experimental: Frankliniella occidentalis (Western Flower Thrips): Feeding/Contact Activity
Sunflower leaf discs were placed on agar in 24-well microtiter plates and sprayed with aqueous test solutions prepared from 10,000 DMSO stock solutions. After drying the leaf discs were infested with a Frankliniella population of mixed ages. The samples were assessed for mortality 7 days after infestation.

CCS(=O)(=O)c1cc(OCC(F)F)cnc1-c1cn2cnc(SC(F)(F)F)cc2n1 [Compound P4, 2-[5-(2,2-difluoroethoxy)-3-ethylsulfonyl-2-pyridyl]-7-(trifluoromethylsulfanyl)imidazo[1,2-c]pyrimidine]
≥ 80%: mortality at 200 ppm [1] | percent effect (mortality or growth inhibition) at 200 ppm [2] | mortality at 200 ppm [3] | percent effect (mortality or growth inhibition) at 200 ppm [4] | mortality at 200 ppm [5] | mortality at 200 ppm [6] | inhibition at 200 ppm [7] | mortality at 200 ppm [8] | percent effect (mortality or growth inhibition) at 200 ppm [9] | pest or weed control at 200 ppm [10] | inhibition at 200 ppm [11] | mortality at 200 ppm [12]

CCS(=O)(=O)c1cc(OC)cnc1-c1cn2cnc(SC(F)(F)F)cc2n1 [Compound P5, 2-(3-ethylsulfonyl-5-methoxy-2-pyridyl)-7-(trifluoromethylsulfanyl)imidazo[1,2-c]pyrimidine]
≥ 80%: percent effect (mortality or growth inhibition) at 200 ppm [2] | mortality at 200 ppm [3] | percent effect (mortality or growth inhibition) at 200 ppm [4] | mortality at 200 ppm [5] | mortality at 200 ppm [6] | mortality at 200 ppm [8] | percent effect (mortality or growth inhibition) at 200 ppm [9] | pest or weed control at 200 ppm [10] | inhibition at 200 ppm [11] | mortality at 200 ppm [12]

CCS(=O)(=O)c1cc(OC)cnc1-c1cn2cnc(C(F)(F)F)cc2n1 [Compound P9, 2-(3-ethylsulfonyl-5-methoxy-2-pyridyl)-7-(trifluoromethyl)imidazo[1,2-c]pyrimidine]
≥ 80%: percent effect (mortality or growth inhibition) at 200 ppm [2] | mortality at 200 ppm [3] | mortality at 200 ppm [6] | mortality at 24 ppm [13] | inhibition at 200 ppm [7] | mortality at 200 ppm [8] | percent effect (mortality or growth inhibition) at 200 ppm [9] | pest or weed control at 200 ppm [10] | inhibition at 200 ppm [11] | mortality at 200 ppm [12]

CCS(=O)(=O)c1cc(OC(C)(C)C(N)=O)cnc1-c1cn2cnc(C(F)(F)F)cc2n1 [Compound P12, 2-[[5-ethylsulfonyl-6-[7-(trifluoromethyl)imidazo[1,2-c]pyrimidin-2-yl]-3-pyridyl]oxy]-2-methyl-propanamide]
≥ 80%: percent effect (mortality or growth inhibition) at 200 ppm [4] | mortality at 200 ppm [5] | mortality at 200 ppm [6] | inhibition at 200 ppm [11]

CCS(=O)(=O)c1cc(OC(C)(C)C#N)cnc1-c1cn2cnc(C(F)(F)F)cc2n1 [Compound P13, 2-[[5-ethylsulfonyl-6-[7-(trifluoromethyl)imidazo[1,2-c]pyrimidin-2-yl]-3-pyridyl]oxy]-2-methyl-propanenitrile]
≥ 80%: mortality at 200 ppm [1] | percent effect (mortality or growth inhibition) at 200 ppm [2] | mortality at 200 ppm [3] | percent effect (mortality or growth inhibition) at 200 ppm [4] | mortality at 200 ppm [5] | mortality at 200 ppm [14] | mortality at 200 ppm [6] | inhibition at 200 ppm [7] | mortality at 200 ppm [8] | percent effect (mortality or growth inhibition) at 200 ppm [9] | pest or weed control at 200 ppm [10] | mortality at 200 ppm [12]

CCS(=O)(=O)c1cc(OCSC)cnc1-c1cn2cnc(C(F)(F)F)cc2n1 [Compound P16, 2-[3-ethylsulfonyl-5-(methylsulfanylmethoxy)-2-pyridyl]-7-(trifluoromethyl)imidazo[1,2-c]pyrimidine]
≥ 80%: mortality at 200 ppm [1] | percent effect (mortality or growth inhibition) at 200 ppm [2] | mortality at 200 ppm [3] | percent effect (mortality or growth inhibition) at 200 ppm [4] | mortality at 200 ppm [5] | mortality at 200 ppm [14] | mortality at 200 ppm [6] | mortality at 24 ppm [13] | inhibition at 200 ppm [7] | percent effect (mortality or growth inhibition) at 200 ppm [9] | pest or weed control at 200 ppm [10] | mortality at 200 ppm [12]

CCS(=O)(=O)c1cc(OC(C)(C)C#N)cnc1-c1cn2cnc(C(F)(F)C(F)(F)F)cc2n1 [Compound P18, 2-[[5-ethylsulfonyl-6-[7-(1,1,2,2,2-pentafluoroethyl)imidazo[1,2-c]pyrimidin-2-yl]-3-pyridyl]oxy]-2-methyl-propanenitrile]
≥ 80%: mortality at 200 ppm [1] | percent effect (mortality or growth inhibition) at 200 ppm [2] | mortality at 200 ppm [3] | percent effect (mortality or growth inhibition) at 200 ppm [4] | mortality at 200 ppm [5] | mortality at 200 ppm [14] | mortality at 200 ppm [6] | inhibition at 200 ppm [7] | mortality at 200 ppm [8] | percent effect (mortality or growth inhibition) at 200 ppm [9] | pest or weed control at 200 ppm [10] | mortality at 200 ppm [12]
